From patent US11547682B2, “Use of formin agonists in overcoming brain tumor radio- and chemo-resistance by targeting tumor microtubes” (The University of Toledo, priority 2019, dated 2023)

Tests used:
Pat9 HGG neurospheres = test: 3D matrigel invasion assay of patient-derived HGG neurospheres (Pat9); assay type: cell-based, human; details: within 24 h; for neurosphere invasion (change in area over T0): 10-50 μM at embedding, refreshed daily, maintained through 48 h, relative to controls
Description: Pat8 and Pat9 HGG neurospheres were embedded in matrigel and allowed to invade. […] Images were captured at embedding (T0) and every 24 h. Invasion area was calculated as increase in area over T0 Pat9 or Pat8 neurosphere areas (FIGS. 3A-3B, respectively). Both Pat9 and Pat8 neurospheres robustly invaded through 48 h, similar to control vehicle-treated neurospheres.
It was previously shown in U87 spheroids that IMM invasion blockade was reversible. Whether IMM anti-invasion effects were reversible was assessed (FIGS. 4A-4B). Pat9 neurospheres were incubated with vehicle or IMMs for 48 h. Drug washouts were then performed with drug-free media and invasion continued for 48 h. As before, IMM removal released invasion suppression relative to neurospheres held in IMMs for 96 h. The live-dead cell dye Draq7 was then used on invading neurospheres treated with IMMs. […] Unexpectedly, when started at 48 h post-invasion in B27-treated control invading neurospheres, IMM treatment for 48 h thereafter induced robust cell death (FIG. 4C).
(§1) Neurospheres formed spontaneously in isolated patient sample monolayer cells. Once spheres detach from monolayers, they were collected using wide-orifice pipette tips and moved to poly-HEMA (Sigma) coated U-bottom 96-well plates. Neurospheres were used upon reaching 200-250 μm diameter. Once neurospheres reached 350 μm, they were dissociated and re-plated in poly-HEMA U-bottom plates at 2000 cells/well.
(§2) 3D invasion assays were as described. Briefly, a thin layer of 5 mg/ml GFR matrigel (Corning) was placed in 8-well chamber glasses (Lab-tek). Neurospheres were added and topped with thin-layer matrigel. Matrigel polymerized for 45 min at 37° C. before addition of 250 μl of media with IMMs. Invasions were imaged at time zero (T0) and every 24 h for experimental durations. Invaded spheroids/spontaneous neurospheres were imaged using an EVOS inverted microscope with an Olympus 4×UplanFL N0.13 PhP objective lens. All measurements were completed with MetaMorph software (Molecular Devices).

[1] = test system: tumor microtubes (TMs) in Pat9 neurospheres; test: Tumor microtube (TM) formation and length in neurosphere edge cells (IF, Metamorph); assay type: cell-based, human; details: for tumor TM length upon drug washout: 50 μM
Description: FIGS. 6A-6E: Tumor microtube shortening and amoeboid cell morphologies in IMM-treated HGG patient-derived neurospheres. […] Left-most boxes indicate areas of magnification shown. Scale bar (upper panel)=25 μm; (lower panel 100 μm). FIGS. 6B-6C show tumor TM lengths were measured using Metamorph software from cell nuclei to tumor TM ends. TMs measured from N>196 cells across three replicate experiments. TMs were measured in control (FIG. 6B), or drug washout experiments using 50 μM IMM01 or IMM02 where m=maintained drug and r=washout (FIG. 6C). Data are shown as scatter plots in FIGS. 6B-6C, or histograms (FIGS. 6B′, 6C′). […] FIGS. 6D, 6D′ show cellular morphologies measured in neurosphere edge cells and EI were calculated by dividing cell long by short axes, where EI=1 is a rounded cell, and E>1 is an elongated cell. N>196 cells across three replicate experiments. Data are shown as scatter plots (FIG. 6D, 6E), or histograms (FIG. 6D′, FIG. 6E′).
FIG. 11: Tumor TM measurements in HGG patient neurospheres. Pat9 neurospheres invaded for 96 h in matrigel in the presence of DMSO, 50 μM IMM01, or 50 μM IMM02. Tumor TMs were measured using Metamorph software by drawing lines (colored lines) along the length of tumor TMs from cell bodies to the end of the tumor TM using brightfield images.
IF was performed on fixed Pat9 neurospheres treated with or without IMMs for 96 h (FIGS. 5A-5B, respectively). mDia1, mDia2, F-actin, β-tubulin, or de-tyrosinated β-tubulin (glu-tubulin) were visualized (to assess stabilized microtubules). Invaded control neurospheres had diffuse invasive fronts, with extensive symmetrical invasion away from the central neurosphere core. Both mDia1 and mDia2 were diffusely cytoplasmic. […] Some cells were enriched in traditional parallel lamellar actin stress fibers and others with numerous radial F-actin-enriched filopodia-like structures (FIG. 8). […]
Cell protrusions were confirmed by IF to robustly express punctate Connexin-43 (FIG. 6A). […] Tumor TM length was measured in neurosphere edge cells in IMM-treated Pat9 neurospheres. […]

U251 monolayers = details: 2D U251 monolayers; cited from earlier work
Pat8 HGG neurospheres = test: 3D matrigel invasion assay of patient-derived HGG neurospheres (Pat8); assay type: cell-based, human; details: 10-50 μM at embedding, refreshed daily, within 24 h, maintained through 48 h, relative to controls
Description: Pat8 and Pat9 HGG neurospheres were embedded in matrigel and allowed to invade. At embedding, neurospheres were treated with 10-50 μM IMM01 or IMM02 and refreshed daily. Images were captured at embedding (T0) and every 24 h. Invasion area was calculated as increase in area over T0 Pat9 or Pat8 neurosphere areas (FIGS. 3A-3B, respectively). Both Pat9 and Pat8 neurospheres robustly invaded through 48 h, similar to control vehicle-treated neurospheres.
as §1
as §2, with “All measurements were completed with MetaMorph software (Molecular Devices).” left out

mDia = details: cited from earlier work
p53 = details: cited from earlier work

Compound | neurosphere invasion (change in area over T0) (Pat9 HGG neurospheres) | tumor TM length upon drug washout [1] | cell cycle progression, apoptosis/multi-nucleation (U251 monolayers) | neurosphere invasion (change in area over T0) (Pat8 HGG neurospheres) | mDia autoinhibition / F-actin polymerization (mDia) | p53 expression (p53) | neurosphere invasion (Pat9 HGG neurospheres; 1 μM) | tumor TM formation ([1]; 1 μM, within 24 h)
CC(C)(C)NC(=S)N/N=C/c1ccc(O)cc1O [IMM01, 2-[(2,4-dihydroxyphenyl)methylene]-N-(1,1-dimethylethyl)-hydrazinecarbothioamide] | significantly halted invasion | recovered to controls | neither changes in cell cycle progression, nor increases in apoptosis/multi-nucleation | significantly halted invasion | relieved mDia autoinhibition to induce F-actin polymerization |  |  | 
C/C(=N\NC(=S)NC(C)(C)C)c1cc(F)cc(F)c1O [IMM02, N1-(tert-butyl)-2-[1-(3,5-difluoro-2-hydroxyphenyl)ethylidene]hydrazine-1-carbothioamide] | significantly halted invasion | recovered to controls | neither changes in cell cycle progression, nor increases in apoptosis/multi-nucleation | significantly halted invasion | relieved mDia autoinhibition to induce F-actin polymerization |  |  | 
O=C1NC(=S)N(c2cccc(Br)c2)C(=O)/C1=C/c1ccco1 [SMIFH2] |  |  |  |  |  | downregulated p53 expression |  | 
COC(=O)Nc1nc2ccc(C(=O)c3cccs3)cc2[nH]1 [nocadazole, nocodazole, reference compound] |  |  |  |  |  |  | halted | halted
